Experimental data as given in article PMC7617969, “Carboxylic Acid Bioisosteres Boost Nurr1 Agonist Selectivity” (Journal of medicinal chemistry, 2025).

Columns and labels:
DHODH = target: T1, DHODH (Homo sapiens, UniProt Q02127); assay: DHODH inhibition colorimetric assay on recombinant human protein; type: biochemical; settings: recombinant human DHODH, colorimetric; mean ± S.E.M., n ≥ 3; read-out: IC50 (DHODH)
T1 construct: using an N-terminally truncated recombinant DHODH enzyme as described previously[20]
T1 sequence (Q02127 31-395): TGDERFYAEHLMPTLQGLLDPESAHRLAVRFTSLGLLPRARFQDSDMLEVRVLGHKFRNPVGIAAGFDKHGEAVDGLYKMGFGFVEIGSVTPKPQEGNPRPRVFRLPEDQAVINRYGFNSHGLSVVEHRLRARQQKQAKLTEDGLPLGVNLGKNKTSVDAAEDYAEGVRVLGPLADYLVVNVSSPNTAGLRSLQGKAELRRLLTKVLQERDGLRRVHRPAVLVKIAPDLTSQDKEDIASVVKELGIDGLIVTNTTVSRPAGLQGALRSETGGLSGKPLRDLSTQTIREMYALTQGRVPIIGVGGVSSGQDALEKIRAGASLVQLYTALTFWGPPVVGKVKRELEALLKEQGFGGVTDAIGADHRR

RAR = assay: Gal4 hybrid reporter gene assay, selectivity panel; type: cell-based, human; settings: 1 µM; relative activation compared to reference agonists
Description: (§1) NR modulation was determined in Gal4 hybrid reporter gene assays in HEK293T cells (German Collection of Microorganisms and Cell Culture GmbH, DSMZ) using pFR-Luc (Stratagene, La Jolla, CA, USA; reporter), pRL-SV40 (Promega, Madison, WI, USA; internal control) and pFA-CMV-hNR-LBD[47],[48] plasmids coding for the hinge region and ligand binding domain of the canonical isoform of the respective NR. Cells were cultured in Dulbecco’s modified Eagle’s medium (DMEM), high glucose supplemented with 10% fetal calf serum (FCS), sodium pyruvate (1 mM), penicillin (100 U/mL), and streptomycin (100 μg/mL) at 37°C and 5% CO2 and seeded in 96-well plates (3×10^4 cells/well). After 24 h, medium was changed to Opti-MEM without supplements and cells were transiently transfected using Lipofectamine LTX reagent (Invitrogen, Carlsbad, CA, USA) according to the manufacturer’s protocol. Five hours after transfection, cells were incubated with the test compounds in Opti-MEM supplemented with penicillin (100 U/mL), streptomycin (100 μg/mL) and 0.1% DMSO for 16 h before luciferase activity was measured using the Dual-Glo Luciferase Assay System (Promega) according to the manufacturer’s protocol on a Tecan Spark luminometer (Tecan Deutschland GmbH, Crailsheim, Germany). Firefly luminescence was divided by Renilla luminescence and multiplied by 1000 resulting in relative light units (RLU) to normalize for transfection efficiency and cell growth. Fold activation was obtained by dividing the mean RLU of test compound by the mean RLU of the untreated control. All samples were tested in at least three biologically independent experiments in duplicates. For dose-response curve fitting and calculation of EC50 values, the equation “[Agonist] vs. response -- Variable slope (four parameters)” was used in GraphPad Prism (version 7.00, GraphPad Software, La Jolla, CA, USA).

THR = assay: Gal4 hybrid reporter gene assay, selectivity panel; type: cell-based, human; settings: 1 µM; relative activation compared to reference agonists
Description: as §1

RXR = assay: Gal4 hybrid reporter gene assay, selectivity panel; type: cell-based, human; settings: 1 µM; relative activation compared to reference agonists
Description: as §1

PPAR = assay: Gal4 hybrid reporter gene assay, selectivity panel; type: cell-based, human; settings: 1 µM; relative activation compared to reference agonists
Description: as §1

NOR1 = target: T2, NOR1 (Homo sapiens, UniProt Q92570); assay: Gal4-NOR1 hybrid reporter gene assay; type: cell-based
T2 construct: expressed in transfected cells; host or cells: HEK293T
T2 sequence (Q92570 394-623 limits assumed): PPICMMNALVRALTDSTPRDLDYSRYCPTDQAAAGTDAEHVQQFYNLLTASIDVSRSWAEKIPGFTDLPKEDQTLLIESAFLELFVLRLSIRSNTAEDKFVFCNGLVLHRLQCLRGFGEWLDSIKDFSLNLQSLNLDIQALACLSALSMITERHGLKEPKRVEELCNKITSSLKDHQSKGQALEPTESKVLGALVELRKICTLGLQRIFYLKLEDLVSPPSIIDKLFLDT
Description: (§2) NR modulation was determined in Gal4 hybrid reporter gene assays in HEK293T cells (German Collection of Microorganisms and Cell Culture GmbH, DSMZ) using pFR-Luc (Stratagene, La Jolla, CA, USA; reporter), pRL-SV40 (Promega, Madison, WI, USA; internal control) and pFA-CMV-hNR-LBD[47],[48] plasmids coding for the hinge region and ligand binding domain of the canonical isoform of the respective NR. Cells were cultured in Dulbecco’s modified Eagle’s medium (DMEM), high glucose supplemented with 10% fetal calf serum (FCS), sodium pyruvate (1 mM), penicillin (100 U/mL), and streptomycin (100 μg/mL) at 37°C and 5% CO2 and seeded in 96-well plates (3×10^4 cells/well). […] Five hours after transfection, cells were incubated with the test compounds in Opti-MEM supplemented with penicillin (100 U/mL), streptomycin (100 μg/mL) and 0.1% DMSO for 16 h before luciferase activity was measured using the Dual-Glo Luciferase Assay System (Promega) according to the manufacturer’s protocol on a Tecan Spark luminometer (Tecan Deutschland GmbH, Crailsheim, Germany). Firefly luminescence was divided by Renilla luminescence and multiplied by 1000 resulting in relative light units (RLU) to normalize for transfection efficiency and cell growth. […]

VDR = target: T3, VDR (Homo sapiens, UniProt P11473); assay: Gal4 hybrid reporter gene assay, selectivity panel; type: cell-based; settings: 1 µM; relative activation compared to reference agonists
T3 construct: expressed in transfected cells; host or cells: HEK293T
T3 sequence (P11473 127-423 limits assumed): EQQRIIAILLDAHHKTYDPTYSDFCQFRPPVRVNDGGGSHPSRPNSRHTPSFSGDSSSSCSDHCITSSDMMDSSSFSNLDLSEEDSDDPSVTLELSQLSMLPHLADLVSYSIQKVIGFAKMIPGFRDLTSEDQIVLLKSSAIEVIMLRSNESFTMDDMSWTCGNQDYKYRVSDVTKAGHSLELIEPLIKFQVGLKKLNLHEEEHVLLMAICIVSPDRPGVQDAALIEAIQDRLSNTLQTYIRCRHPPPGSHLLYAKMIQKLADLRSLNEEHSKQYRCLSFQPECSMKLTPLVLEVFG
Description: as §1

PXR = target: T4, PXR (Homo sapiens, UniProt O75469); assay: Gal4 hybrid reporter gene assay, selectivity panel; type: cell-based; settings: 1 µM; relative activation compared to reference agonists
T4 construct: expressed in transfected cells; host or cells: HEK293T
T4 sequence (O75469 146-433): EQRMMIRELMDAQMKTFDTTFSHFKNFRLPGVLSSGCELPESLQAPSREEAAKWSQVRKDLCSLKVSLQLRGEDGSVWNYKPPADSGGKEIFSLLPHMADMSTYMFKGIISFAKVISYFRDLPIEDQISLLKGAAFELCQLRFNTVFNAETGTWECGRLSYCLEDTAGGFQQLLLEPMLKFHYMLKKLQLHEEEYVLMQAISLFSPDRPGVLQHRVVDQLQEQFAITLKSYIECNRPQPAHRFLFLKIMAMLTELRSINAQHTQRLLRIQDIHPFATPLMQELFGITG
Description: as §1

FXR = target: T5, FXR (Homo sapiens, UniProt Q96RI1); assay: Gal4 hybrid reporter gene assay, selectivity panel; type: cell-based; settings: 1 µM; relative activation compared to reference agonists
T5 construct: expressed in transfected cells; host or cells: HEK293T
T5 sequence (Q96RI1 262-486 limits assumed): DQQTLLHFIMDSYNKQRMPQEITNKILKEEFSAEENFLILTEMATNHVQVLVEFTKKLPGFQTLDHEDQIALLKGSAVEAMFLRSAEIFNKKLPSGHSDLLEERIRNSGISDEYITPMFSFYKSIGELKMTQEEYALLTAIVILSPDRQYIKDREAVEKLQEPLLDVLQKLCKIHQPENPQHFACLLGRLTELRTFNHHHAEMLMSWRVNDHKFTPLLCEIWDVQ
Description: as §1

CAR = target: T6, CAR (Homo sapiens, UniProt Q14994); assay: Gal4 hybrid reporter gene assay, selectivity panel; type: cell-based; settings: 1 µM; relative activation compared to reference agonists
T6 construct: expressed in transfected cells; host or cells: HEK293T
T6 sequence (Q14994 109-352 limits assumed): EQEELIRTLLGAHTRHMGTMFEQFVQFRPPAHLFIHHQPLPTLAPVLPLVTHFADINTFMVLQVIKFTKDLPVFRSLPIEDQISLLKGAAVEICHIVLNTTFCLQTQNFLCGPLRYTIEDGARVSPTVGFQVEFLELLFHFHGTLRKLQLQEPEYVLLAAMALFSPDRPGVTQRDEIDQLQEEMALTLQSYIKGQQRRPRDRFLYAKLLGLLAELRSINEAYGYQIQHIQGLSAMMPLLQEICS
Description: as §1

Nur77 = target: T7, Nur77 (Homo sapiens, UniProt P22736); assay: Gal4-Nur77 hybrid reporter gene assay; type: cell-based
T7 construct: expressed in transfected cells; host or cells: HEK293T
T7 sequence (P22736 360-595 limits assumed): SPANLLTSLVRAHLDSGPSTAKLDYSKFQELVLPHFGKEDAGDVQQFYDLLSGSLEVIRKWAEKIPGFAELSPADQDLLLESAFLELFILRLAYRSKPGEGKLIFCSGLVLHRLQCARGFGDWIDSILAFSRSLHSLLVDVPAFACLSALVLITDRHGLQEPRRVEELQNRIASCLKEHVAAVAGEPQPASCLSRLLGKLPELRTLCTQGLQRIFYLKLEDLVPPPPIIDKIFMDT
Description: as §2

recombinant Nurr1 LBD = target: T8, recombinant Nurr1 LBD (Homo sapiens, UniProt P43354); assay: Isothermal titration calorimetry (ITC); type: binding; settings: 25 °C
T8 construct: Nurr1 LBD protein (15 μM, expressed as described previously[18]); made in house
T8 sequence (P43354 360-595 limits assumed): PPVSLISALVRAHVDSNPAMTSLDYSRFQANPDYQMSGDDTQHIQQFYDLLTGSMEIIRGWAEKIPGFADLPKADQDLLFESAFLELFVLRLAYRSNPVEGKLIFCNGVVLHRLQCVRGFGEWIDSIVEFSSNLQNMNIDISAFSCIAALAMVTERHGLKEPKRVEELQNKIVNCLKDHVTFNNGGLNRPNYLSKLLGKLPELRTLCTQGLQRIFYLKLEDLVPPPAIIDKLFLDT
Description: ITC experiments were conducted on an Affinity ITC instrument (TA Instruments, New Castle, DE, USA) at 25 °C with a stirring rate of 75 rpm. Nurr1 LBD protein (15 μM, expressed as described previously[18]) in buffer (20 mM Tris, pH 7.5, 100 mM NaCl, 5% glycerol) containing 5% DMSO was titrated with 32 (100 μM in the same buffer containing […]) in 21 injections (1 × 1 µL and 20 × 4 μL) with an injection interval of 120 s. As control experiments, the test compound was titrated to the buffer, and the buffer was titrated to the Nurr1 LBD protein under otherwise identical conditions. The heats of the compound−protein titration were analyzed using NanoAnalyze software (version 3.11.0, TA Instruments) with independent binding model.

COc1cccc(-c2ccc(NC(=O)C3=C(c4nn[nH]n4)CCC3)c(F)c2)c1 [compound 32, N-{3-Fluoro-3’-methoxy-[1,1'-biphenyl]-4-yl}-2-(2H-tetrazol-5-yl)cyclopent-1-ene-1-carboxamide]
IC50 (DHODH): 10000 ± 2000 nM | activity on RAR (RAR): no activity | activity on THR (THR): no activity | activity on RXR (RXR): no activity | activity on PPAR (PPAR): no activity | EC50 (NOR1): 120 ± 10 nM | fold activation (NOR1) (NOR1): 1.8 fold | activity on VDR (VDR): no activity | activity on PXR (PXR): no activity | activity on FXR (FXR): no activity | activity on CAR (CAR): no activity | EC50 (Nur77): 160 ± 30 nM | fold activation (Nur77) (Nur77): 1.9 fold | Kd (recombinant Nurr1 LBD): 200 nM
